Laboratory results taken from patent US10766869B2, “Triazoles for the treatment of demyelinating dieases” (Vertex Pharmaceuticals Incorporated, priority 2015, dated 2020).
Where two headings read alike, the source gives them in different places.

System: primary rat mixed cortical cells
Test: In vitro myelination assay (MBP positive myelin strands, fold myelin pixels above background)
Format: cell-based
Conditions: Rattus norvegicus; for fold induction at 1 µM: 1.0 μM compound; for fold induction at 10 µM: 10.0 μM compound
How it was run: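 P1 rat mixed cortical cultures (neurons, OPCs, oligodendrocytes, astrocytes, microglia) grown 14 days at 37 °C with compound, half-medium refreshed with compound on days 6 and 10. Fixed cells stained for MBP; MBP-positive myelin strand pixels per well quantified by automated imaging, reported as fold over no-compound baseline at 1.0 and 10.0 μM.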

[1] = relative to baseline of no added compound, read-out: Fold myelin pixels above background, 1.0 μM
[2] = relative to baseline of no added compound, read-out: Fold myelin pixels above background, 10.0 μM
[3] = read-out: Fold myelin pixels above background relative to baseline of no added compound
[4] = relative to baseline of no added compound, read-out: Fold myelin pixels above background

Compound | fold induction at 1 µM [1] | fold induction at 10 µM [2] | fold induction at 1 µM [4] | fold induction at 10 µM [4] | further results
Cc1cc(Nc2ncn(-c3cc(F)cc(F)c3)n2)cc(C2CCN(C3CC3)CC2)c1 [Compound 261, N-[3-(1-cyclopropyl-4-piperidyl)-5-methyl-phenyl]-1-(3,5-difluorophenyl)-1,2,4-triazol-3-amine] | 10 to 100 | 10 to 100 |  |  | 
CN1CCCN(c2cc(F)cc(Nc3ncn(-c4cccc(F)c4)n3)c2)CC1 [Compound 98, N-[3-fluoro-5-(4-methyl-1,4-diazepan-1-yl)phenyl]-1-(3-fluorophenyl)-1,2,4-triazol-3-amine] | 10 to 100 | ≤ 1 |  |  | 
Cc1cc(NC2CCOC2)cc(Nc2ncn(-c3cc(F)cc(F)c3)n2)c1F (stereo not drawn) [Compound 953, N3-[1-(3,5-difluorophenyl)-1,2,4-triazol-3-yl]-4-fluoro-5-methyl-N1-tetrahydrofuran-3-yl-benzene-1,3-diamine] |  |  |  |  | fold induction at 1 µM [3]: 1 to 10; fold induction at 10 µM [3]: 1 to 10
Fc1cc(F)cc(-n2cnc(Nc3cc(C(F)(F)F)cc(N4CCN(C5CCOC5)CC4)n3)n2)c1 (stereo not drawn) [Compound 564, N-[1-(3,5-difluorophenyl)-1,2,4-triazol-3-yl]-6-(4-tetrahydrofuran-3-ylpiperazin-1-yl)-4-(trifluoromethyl)pyridin-2-amine] |  |  | ≤ 1 | ≤ 1 | 
CCC1CN(CCNc2cc(C)cc(Nc3ncn(-c4cc(F)cc(F)c4)n3)c2)CCO1 (stereo not drawn) [Compound 917, N3-[1-(3,5-difluorophenyl)-1,2,4-triazol-3-yl]-N1-[2-(2-ethylmorpholin-4-yl)ethyl]-5-methyl-benzene-1,3-diamine] |  |  |  |  | fold induction at 1 µM [3]: 10 to 100; fold induction at 10 µM [3]: ≤ 1
Cc1cc(Nc2ncn(-c3cc(F)cc(F)c3)n2)cc(N2C3CCC2COC3)c1 [Compound 722, 1-(3,5-difluorophenyl)-N-[3-methyl-5-(3-oxa-8-azabicyclo[3.2.1]octan-8-yl)phenyl]-1,2,4-triazol-3-amine] |  |  | 10 to 100 | 10 to 100 | 
COCCNc1cc(F)cc(-n2cnc(Nc3cc(C)cc(N4CC(F)C4)c3)n2)c1 [Compound 766, N-[3-(3-fluoroazetidin-1-yl)-5-methyl-phenyl]-1-[3-fluoro-5-(2-methoxyethylamino)phenyl]-1,2,4-triazol-3-amine] |  |  | 1 to 10 | ≤ 1 | 
Cc1cc(Nc2ncn(-c3ccc(C(F)(F)F)cc3)n2)cc(N2CCCC2)c1 [Compound 356, N-(3-methyl-5-pyrrolidin-1-yl-phenyl)-1-[4-(trifluoromethyl)phenyl]-1,2,4-triazol-3-amine] | ≤ 1 | 10 to 100 |  |  | 
NC1CN(c2cc(F)cc(Nc3ncn(-c4ccc(F)cc4F)n3)c2)C1 [Compound 283, N-[3-(3-aminoazetidin-1-yl)-5-fluoro-phenyl]-1-(2,4-difluorophenyl)-1,2,4-triazol-3-amine] | ≤ 1 | ≤ 1 |  |  | 
COCC1CCN(c2cc(C)cc(Nc3ncn(-c4ccncc4)n3)c2)CC1 [Compound 385, N-[3-[4-(methoxymethyl)-1-piperidyl]-5-methyl-phenyl]-1-(4-pyridyl)-1,2,4-triazol-3-amine] | 100 to 1000 | 100 to 1000 |  |  | 
Cc1cc(Nc2ncn(-c3ccccc3)n2)cc(N2CCNC([C@](C)(O)C(C)C)C2)n1 (stereo partly drawn) [Compound 57, (2R)-3-methyl-2-[4-[6-methyl-4-[(1-phenyl-1,2,4-triazol-3-yl)amino]-2-pyridyl]piperazin-2-yl]butan-2-ol] | 100 to 1000 | ≤ 1 |  |  | 
Fc1cc(Nc2ncn(-c3ccc(C(F)(F)F)cc3)n2)cc(N2CCCC2)c1 [Compound 441, N-(3-fluoro-5-pyrrolidin-1-yl-phenyl)-1-[4-(trifluoromethyl)phenyl]-1,2,4-triazol-3-amine] |  |  | 1 to 10 | ≤ 1 | 
CCN(C)Cc1cc(F)cc(-n2cnc(Nc3cc(C)cc(N4CCN(C)CC4)c3)n2)c1 [Compound 390, 1-[3-[[ethyl(methyl)amino]methyl]-5-fluoro-phenyl]-N-[3-methyl-5-(4-methylpiperazin-1-yl)phenyl]-1,2,4-triazol-3-amine] |  |  | 10 to 100 | 10 to 100 | 
CCOC(=O)C1CCN(c2cc(C)cc(Nc3ncn(-c4cc(F)cc(F)c4)n3)n2)CC1 [Compound 565, ethyl 1-[6-[[1-(3,5-difluorophenyl)-1,2,4-triazol-3-yl]amino]-4-methyl-2-pyridyl]piperidine-4-carboxylate] |  |  | ≤ 1 | ≤ 1 | 
OC1(C2CN(c3cc(Nc4ncn(-c5cc(F)cc(F)c5)n4)cc(C(F)(F)F)c3)CCN2)CCC1 (stereo not drawn) [Compound 4, 1-[4-[3-[[1-(3,5-difluorophenyl)-1,2,4-triazol-3-yl]amino]-5-(trifluoromethyl)phenyl]piperazin-2-yl]cyclobutanol] | 1 to 10 | ≤ 1 |  |  | 
CC(=O)N1CCC(Nc2cc(C)cc(Nc3ncn(-c4ccccc4)n3)c2)CC1 [Compound 402, 1-[4-[3-methyl-5-[(1-phenyl-1,2,4-triazol-3-yl)amino]anilino]-1-piperidyl]ethanone] |  |  | 100 to 1000 | 10 to 100 | 
Cc1cc(Nc2ncn(-c3ccc(F)cc3)n2)cc(OC2CCN(C3COC3)CC2)c1 [Compound 201, 1-(4-fluorophenyl)-N-[3-methyl-5-[[1-(oxetan-3-yl)-4-piperidyl]oxy]phenyl]-1,2,4-triazol-3-amine] | 1000 to 10000 | ≤ 1 |  |  | 
Cc1cc(Nc2ncn(-c3ccccc3)n2)cc(N2CC3(C2)CN(C(C)C)C3)c1 [Compound 1034, N-[3-(2-isopropyl-2,6-diazaspiro[3.3]heptan-6-yl)-5-methyl-phenyl]-1-phenyl-1,2,4-triazol-3-amine] |  |  |  |  | fold induction at 1 µM [3]: 10 to 100; fold induction at 10 µM [3]: ≤ 1
[2H]C(C)(C)N1CCN(c2cc(C)cc(Nc3ncn(-c4ccccc4)n3)c2)CC1 [Compound 929, N-[3-[4-(1-deuterio-1-methyl-ethyl)piperazin-1-yl]-5-methyl-phenyl]-1-phenyl-1,2,4-triazol-3-amine] |  |  |  |  | fold induction at 1 µM [3]: 10 to 100; fold induction at 10 µM [3]: ≤ 1
Clc1cccc(-n2cnc(Nc3cc(C4CC4)cc(N4CCN(C5COC5)CC4)c3)n2)c1 [Compound 55, 1-(3-chlorophenyl)-N-[3-cyclopropyl-5-[4-(oxetan-3-yl)piperazin-1-yl]phenyl]-1,2,4-triazol-3-amine] | 100 to 1000 | ≤ 1 |  |  | 
Cc1cc(Nc2ncn(-c3cc(F)cc(F)c3)n2)cc(N2CCC(CCCO)CC2)c1 [Compound 877, 3-[1-[3-[[1-(3,5-difluorophenyl)-1,2,4-triazol-3-yl]amino]-5-methyl-phenyl]-4-piperidyl]propan-1-ol] |  |  |  |  | fold induction at 1 µM [3]: 1 to 10; fold induction at 10 µM [3]: 1 to 10
COc1ccc(-n2cnc(Nc3cc(C)cc(N4CCN(C5COC5)CC4)c3)n2)cc1 [Compound 710, 1-(4-methoxyphenyl)-N-[3-methyl-5-[4-(oxetan-3-yl)piperazin-1-yl]phenyl]-1,2,4-triazol-3-amine] |  |  | 10 to 100 | ≤ 1 | 
F[C@@H]1CCN(c2cc(Nc3ncn(-c4ccccc4)n3)cc(C3CC3)n2)C1 [Compound 296, 2-cyclopropyl-6-[(3R)-3-fluoropyrrolidin-1-yl]-N-(1-phenyl-1,2,4-triazol-3-yl)pyridin-4-amine] | 100 to 1000 | 10 to 100 |  |  | 
FC(F)c1cc(Nc2ncn(-c3ccccc3)n2)cc(N2CCNCC2)c1 [Compound 62, N-[3-(difluoromethyl)-5-piperazin-1-yl-phenyl]-1-phenyl-1,2,4-triazol-3-amine] | 1000 to 10000 | ≤ 1 |  |  | 
CN1CCN(c2cc(Nc3ncn(-c4ccncc4)n3)cc(C(F)(F)F)c2)CC1 [Compound 13, N-[3-(4-methylpiperazin-1-yl)-5-(trifluoromethyl)phenyl]-1-(4-pyridyl)-1,2,4-triazol-3-amine] | 100 to 1000 | ≤ 1 |  |  | 
Cc1cc(Nc2ncn(-c3ccccc3)n2)cc(N2C[C@@H](C)N(C)[C@@H](C)C2)c1 [Compound 423, N-[3-methyl-5-[(3R,5S)-3,4,5-trimethylpiperazin-1-yl]phenyl]-1-phenyl-1,2,4-triazol-3-amine] |  |  | 100 to 1000 | ≤ 1 | 
Clc1cc(Nc2ncn(-c3ccccc3)n2)cc(N2CCOCC2)n1 [Compound 135, 2-chloro-6-morpholino-N-(1-phenyl-1,2,4-triazol-3-yl)pyridin-4-amine] | 1000 to 10000 | ≤ 1 |  |  | 
Cc1cc(Nc2ncn(-c3cc(F)cc(F)c3)n2)cc(N2CCCC2CS(C)(=O)=O)c1 (stereo not drawn) [Compound 1051, 1-(3,5-difluorophenyl)-N-[3-methyl-5-[2-(methylsulfonylmethyl)pyrrolidin-1-yl]phenyl]-1,2,4-triazol-3-amine] |  |  |  |  | fold induction at 1 µM [3]: 10 to 100; fold induction at 10 µM [3]: 1 to 10
C1=C(c2cc(Nc3ncn(-c4ccccc4)n3)cc(C3=CCOC3)c2)COC1 [Compound 234, N-[3,5-bis(2,5-dihydrofuran-3-yl)phenyl]-1-phenyl-1,2,4-triazol-3-amine] | 1 to 10 | 100 to 1000 |  |  | 
Cc1cc(Nc2ncn(-c3ccc(F)c(Cl)c3)n2)cc(N2CCN(C3COC3)CC2)c1 [Compound 597, 1-(3-chloro-4-fluoro-phenyl)-N-[3-methyl-5-[4-(oxetan-3-yl)piperazin-1-yl]phenyl]-1,2,4-triazol-3-amine] |  |  | 1 to 10 | ≤ 1 | 
